For assay [1], the system named is IL2-induced peritoneal recruitment of lymphocytes. The assay is described as follows: IL2-induced peritoneal recruitment of lymphocytes in mice. In kind it is in vivo. Particulars: C3H mice. As to the method: B. Biological Assay: IL2-Induced Peritoneal Recruitment of Lymphocytes in Mice Protocol
C3H Mice (Elevage Janvier) (8 week old, n=6) received IL2 (SPRI, 20 μg/kg, 40 ml/kg, ip) 15 min after administration of the test molecules. Twenty-four hours later, the animals were sacrificed and the lavage of the peritoneal cavity was conducted using 3×5 ml PBS-1 mM EDTA (+4° C.). After centrifugation (10 min at 3000 rpm), the pellet was resuspended in 1 ml PBS. The peritoneal cells were counted using a Beckman/Coulter counter. IL2 was solubilized in saline. The test compounds of the invention were solubilized or suspended in 0.5% carboxymethylcellulose (CMC)/0.25% Tween-20 and orally administered. […]

A further assay concerns the target T1, MMP-2 (Homo sapiens, UniProt P08253).
T1 sequence (P08253 110-660): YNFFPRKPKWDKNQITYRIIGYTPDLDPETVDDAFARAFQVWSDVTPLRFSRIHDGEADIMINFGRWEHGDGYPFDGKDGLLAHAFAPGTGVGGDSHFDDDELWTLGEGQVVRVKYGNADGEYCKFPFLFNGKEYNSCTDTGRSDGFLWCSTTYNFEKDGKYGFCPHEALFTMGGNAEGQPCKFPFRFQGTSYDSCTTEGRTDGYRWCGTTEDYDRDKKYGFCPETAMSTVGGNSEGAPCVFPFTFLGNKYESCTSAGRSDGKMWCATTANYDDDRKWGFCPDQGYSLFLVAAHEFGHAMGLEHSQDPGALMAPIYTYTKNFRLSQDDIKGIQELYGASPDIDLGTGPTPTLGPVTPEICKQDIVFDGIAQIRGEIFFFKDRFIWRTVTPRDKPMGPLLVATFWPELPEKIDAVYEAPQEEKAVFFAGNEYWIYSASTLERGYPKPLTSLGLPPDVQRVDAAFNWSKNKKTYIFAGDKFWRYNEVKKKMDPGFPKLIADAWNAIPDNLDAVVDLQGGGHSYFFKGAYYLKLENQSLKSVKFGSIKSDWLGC
Put plainly: MMP-2 enzyme inhibition. The format is biochemical. Particulars: read-out: MMP-2 (nM) inhibitory activity. The source says: For instance the inhibitory activities of some of the compounds of the examples against MMP-12, MMP-9, MMP-2 and MMP-1 are set out in the following table: […]

The next assay addresses T2, collagenase (MMP1) (Homo sapiens, UniProt P03956).
T2 sequence (P03956 100-469): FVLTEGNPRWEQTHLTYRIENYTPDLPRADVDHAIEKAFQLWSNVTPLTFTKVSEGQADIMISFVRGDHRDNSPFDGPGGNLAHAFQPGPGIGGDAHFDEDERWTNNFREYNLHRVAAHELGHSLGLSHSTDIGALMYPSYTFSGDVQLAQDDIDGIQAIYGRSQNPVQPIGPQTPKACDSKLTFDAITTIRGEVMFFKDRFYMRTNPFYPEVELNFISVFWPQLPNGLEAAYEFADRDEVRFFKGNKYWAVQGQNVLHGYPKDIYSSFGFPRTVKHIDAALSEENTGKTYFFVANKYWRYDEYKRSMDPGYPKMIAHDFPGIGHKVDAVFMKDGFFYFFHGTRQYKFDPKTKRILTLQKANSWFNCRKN
Put plainly: MMP1 enzyme inhibition assay, coumarin-labelled peptide substrate. The format is biochemical. Particulars: read-out: MMP-1 (nM) inhibitory activity. As to the method: (§1) Stock solutions were made up as follows: • Assay Buffer: 100 mM Tris-HCl pH 7.6 containing 100 mM NaCl, 10 mM CaCl2, and 0.05% Brij 35 • Substrate: 0.4 mM McaPLGLDpaAR (from Bachem) (0.437 mg/ml) stock solution in 100% • DMSO (stored at −20° C.). Dilute to 8 μM in assay buffer. • Enzyme: Recombinant human 92 kDa gelatinase (MMP-9; APMA (4-aminophenylmercuric acetate)-activated if necessary) appropriately diluted in assay buffer.
(§2) Test Compounds were prepared initially as 10 mM compound solution in 100% DMSO, diluted to 1 mM in 100% DMSO, then serially diluted 3-fold in 100% DMSO across columns 1-10 of a 96-well microtitre plate Assay concentration range, 100 μM (column 1) to 5.1 nM (column 10)
(§3) The assay was performed in a total volume of 100 μl upper well in 96-well microtitre plates. Activated enzyme (20 μl) was added to the wells followed by 20 μl of assay buffer. Appropriate concentrations of test compounds dissolved in 10 μl of DMSO were then added followed by 50 μl of McaPLGLDpaAR (8 μM, prepared by dilution of DMSO stock in assay buffer). For each assay ten concentrations of test compound were examined in duplicate. Control wells lack either enzyme or test compound. The reactions were incubated at 37° C. for 2 hours. The fluorescence at 405 nm was measured immediately with an SLT Fluostar fluorometer (SLT Labinstruments GmbH, Grödig, Austria) using 320 nm excitation, without stopping the reaction.
(§4) The effect of the test compound was determined from the dose response curve generated by the 10 duplicate concentrations of inhibitor. The IC50 (the concentration of compound required to give a 50% decrease in enzyme activity) was obtained by fitting data to the equation, Y=a+((b−a)/(1+(c/X)^d)). (Y=inhibition achieved for a particular dose; X=the dose in nM; a=minimum y or zero % inhibition; b=maximum y or 100% inhibition; c=is the IC50; d=is the slope). The result was rounded to one significant figure.
Compounds of the invention were tested for inhibitory activity against collagenase (MMP1) in an assay using a coumarin-labelled peptide substrate, (7-methoxycoumarin-4-yl)acetyl-Pro-Leu-Gly-Leu-(3-[2,4-dinitrophenyl]-L-2,3-diaminopropionyl)-Ala-Arg-NH2 (McaPLGLDpaAR) (Knight et al, FEBS Lett. 1992; 263-266). The protocol for this assay was as described for the MMP9 assay above.

The next assay addresses 92 kDa gelatinase (MMP9) (Homo sapiens, UniProt P14780). The assay is described as follows: MMP9 enzyme inhibition assay, coumarin-labelled peptide substrate. Particulars: recombinant human MMP-9, 37° C., 2 hours; read-out: MMP-9 (nM) inhibitory activity. In kind it is biochemical. The method, then:
Compounds of the invention were tested for inhibitory activity against 92 kDa gelatinase (MMP9) in an assay using a coumarin-labelled peptide substrate, (7-methoxycoumarin-4-yl)acetyl-Pro-Leu-Gly-Leu-(3-[2,4-dinitrophenyl]-L-2,3-diaminopropionyl)-Ala-Arg-NH2 (McaPLGLDpaAR) (Knight et al, FEBS Lett. 1992; 263-266).
as §1, §2, §3, §4

A further assay concerns the target metalloelastase (MMP12) (Homo sapiens, UniProt P39900). The assay is described as follows: MMP12 enzyme inhibition assay, coumarin-labelled peptide substrate. The format is biochemical. Particulars: read-out: MMP-12 (nM) inhibitory activity. The method, then: as §1, §2, §3, §4
Compounds of the invention were tested for inhibitory activity against metalloelastase (MMP12) in an assay using a coumarin-labelled peptide substrate, (7-methoxycoumarin-4-yl)acetyl-Pro-Leu-Gly-Leu-(3-[2,4-dinitrophenyl]-L-2,3-diaminopropionyl)-Ala-Arg-NH2 (McaPLGLDpaAR) (Knight et al, FEBS Lett. 1992; 263-266). The protocol for this assay was as described for the MMP9 assay above.

Where [2] appears, read: 3 mg/kg po, 15 min before IL2 ip, cells counted 24 h later.

Bounds are passed on as bounds.

Chain of metalloelastase (MMP12) (P39900 106-470): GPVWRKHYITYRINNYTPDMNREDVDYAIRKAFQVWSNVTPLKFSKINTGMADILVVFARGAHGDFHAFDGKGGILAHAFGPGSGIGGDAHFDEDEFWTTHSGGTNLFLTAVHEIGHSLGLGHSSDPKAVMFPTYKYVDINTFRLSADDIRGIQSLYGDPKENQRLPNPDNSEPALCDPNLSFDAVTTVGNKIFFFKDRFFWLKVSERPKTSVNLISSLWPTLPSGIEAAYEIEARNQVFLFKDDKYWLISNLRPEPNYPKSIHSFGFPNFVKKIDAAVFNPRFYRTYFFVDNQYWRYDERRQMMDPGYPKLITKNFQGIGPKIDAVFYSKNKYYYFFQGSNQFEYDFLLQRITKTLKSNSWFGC
Chain of 92 kDa gelatinase (MMP9) (P14780 107-707 limits assumed): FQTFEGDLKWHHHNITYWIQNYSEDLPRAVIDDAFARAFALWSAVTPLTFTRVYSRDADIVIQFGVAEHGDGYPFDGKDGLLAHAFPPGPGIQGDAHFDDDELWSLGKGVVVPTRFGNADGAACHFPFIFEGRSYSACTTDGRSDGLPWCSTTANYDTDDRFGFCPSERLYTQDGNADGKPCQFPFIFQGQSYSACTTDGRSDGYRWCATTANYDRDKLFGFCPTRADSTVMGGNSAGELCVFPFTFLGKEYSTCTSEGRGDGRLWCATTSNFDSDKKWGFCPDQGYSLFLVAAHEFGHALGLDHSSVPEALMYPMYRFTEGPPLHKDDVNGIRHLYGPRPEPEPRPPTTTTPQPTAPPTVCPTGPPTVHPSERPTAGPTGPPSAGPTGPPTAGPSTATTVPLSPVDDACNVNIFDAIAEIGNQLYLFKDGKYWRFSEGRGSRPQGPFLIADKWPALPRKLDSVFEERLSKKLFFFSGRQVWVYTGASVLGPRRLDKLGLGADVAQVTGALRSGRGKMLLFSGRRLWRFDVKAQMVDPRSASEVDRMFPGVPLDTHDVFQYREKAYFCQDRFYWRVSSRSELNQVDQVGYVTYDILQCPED

Regarding `C[C@@H]1C[C@H]2[C@@H]3CCC4=CC(=O)C=C[C@]4(C)[C@@]3(F)[C@@H](O)C[C@]2(C)[C@@]1(O)C(=O)CO` [Dexamethazone, Dexamethasone, reference compound], the “% Inhibition of IL2-induced peritoneal recruitment” value (“% Inhibition” below) in assay [1] (1 mg/kg sc (reference compound)) stood at 76%.

For `CCOc1ccc(CCC[C@@H](C(=O)N2CCN(c3ccc(OC)cc3)CC2)[C@H](O)C(=O)NO)cc1` [Example 4, 6-(4-ethoxy-phenyl)-2S-hydroxy-3R-[4-(4-methoxy-phenyl)-piperazine-1-carbonyl]-hexanoic acid hydroxyamide], the IC50 is less than 100 nM on MMP-2, more than 10000 nM on collagenase (MMP1), less than 100 nM on 92 kDa gelatinase (MMP9) and less than 100 nM at metalloelastase (MMP12). Besides, the “% Inhibition” value in assay [1] (setting [2]) came out at 34%.

Consider `CCOc1ccc(CCC[C@@H](C(=O)N2CCN(c3ccccn3)CC2)[C@H](O)C(=O)NO)cc1` [Example 5, 6-(4-ethoxy-phenyl)-2S-hydroxy-3R-(4-pyridin-2-yl-piperazine-1-carbonyl)-hexanoic acid hydroxyamide], for which the IC50 on MMP-2 was less than 100 nM; on collagenase (MMP1), more than 10000 nM; at 92 kDa gelatinase (MMP9) it was less than 100 nM; at metalloelastase (MMP12), less than 100 nM. Moreover, in assay [1] (setting [2]), the “% Inhibition” value amounted to 50%.

On to `CCOc1ccc(CCC[C@@H](C(=O)N2CCN(c3ccncc3)CC2)[C@H](O)C(=O)NO)cc1` [Example 6, 6-(4-ethoxy-phenyl)-2S-hydroxy-3R-(4-pyridin-4-yl-piperazine-1-carbonyl)-hexanoic acid hydroxyamide], for which the IC50 was 100 to 1000 nM at MMP-2, more than 10000 nM at collagenase (MMP1), 100 to 1000 nM at 92 kDa gelatinase (MMP9) and less than 100 nM on metalloelastase (MMP12). Besides, in assay [1] (setting [2]), the “% Inhibition” value is given as 33%.

As for `CCOc1ccc(CCC[C@@H](C(=O)N2CCN(Cc3ccc4c(c3)OCO4)CC2)[C@H](O)C(=O)NO)cc1` [Example 12, 3R-(4-benzo[1,3]dioxol-5-ylmethyl-piperazine-1-carbonyl)-6-(4-ethoxy-phenyl)-2S-hydroxy-hexanoic acid hydroxyamide], the IC50 was less than 100 nM at MMP-2, more than 10000 nM on collagenase (MMP1), less than 100 nM on 92 kDa gelatinase (MMP9) and less than 100 nM on metalloelastase (MMP12).

Turning to `CCOc1ccc(CCC[C@@H](C(=O)N2CCN(Cc3ccncc3)CC2)[C@H](O)C(=O)NO)cc1` [Example 13, 6-(4-ethoxy-phenyl)-2S-hydroxy-3R-(4-pyridin-4-ylmethyl-piperazine-1-carbonyl)-hexanoic acid hydroxyamide], the IC50 is less than 100 nM at MMP-2, more than 10000 nM at collagenase (MMP1), less than 100 nM at 92 kDa gelatinase (MMP9) and less than 100 nM on metalloelastase (MMP12). In addition, the “% Inhibition” value in assay [1] (setting [2]) is 47%.

On to `CCOc1ccc(CCC[C@@H](C(=O)N2CCN(Cc3ccccc3)CC2)[C@H](O)C(=O)NO)cc1` [Example 14, 6-(4-ethoxy-phenyl)-2S-hydroxy-3R-(4-benzylpiperazine-1-carbonyl)-hexanoic acid hydroxyamide], for which the IC50 at MMP-2 is less than 100 nM; at collagenase (MMP1) it was more than 10000 nM; on 92 kDa gelatinase (MMP9), less than 100 nM; at metalloelastase (MMP12) it was less than 100 nM. The “% Inhibition” value in assay [1] (setting [2]) was 30%.

As to `CCOc1ccc(CCC[C@@H](C(=O)N2CCN(c3ccccc3F)CC2)[C@H](O)C(=O)NO)cc1` [Example 20, 6-(4-ethoxy-phenyl)-2S-hydroxy-3R-[4-(2-fluoro-phenyl)-piperazine-1-carbonyl]-hexanoic acid hydroxyamide], the IC50 is less than 100 nM on MMP-2, more than 10000 nM at collagenase (MMP1), less than 100 nM at 92 kDa gelatinase (MMP9) and less than 100 nM at metalloelastase (MMP12). Besides, the “% Inhibition” value in assay [1] (setting [2]) was 57%.

For the compound `CCOc1ccc(CCC[C@@H](C(=O)N2CCN(c3ccccc3F)CC2)[C@H](OC)C(=O)NO)cc1` [Example 62, 6-(4-ethoxy-phenyl)-2S-methoxy-3R-[4-(2-fluoro-phenyl)-piperazine-1-carbonyl]-hexanoic acid hydroxyamide], the IC50 on MMP-2 was less than 100 nM; on collagenase (MMP1), more than 10000 nM; on 92 kDa gelatinase (MMP9) it was less than 100 nM; on metalloelastase (MMP12), less than 100 nM.

The values above are taken from patent US7786121B2, “Derivatives of hydroxamic acid as metalloproteinase inhibitors” (Vernalis (Oxford) Limited, priority 2003, dated 2010).
